Source: patent publication US20110217713A1 (On-Q-ity, priority 2010, published 2011)

Tested on: non-small cell lung cancer patient specimens (adenocarcinomas and squamous cell carcinoma)
Experiment: International Adjuvant Lung Trial (IALT): cisplatin-based therapy vs observation, DFS/OS against IHC DNA repair biomarker Q-scores (Cox PH models)
Type: in vivo, human
Experimental: An immunohistochemical evaluation of DNA Repair Proteins was conducted on a large international patient specimen collection from the IALT trial (International Adjuvant Lung Trial). This clinical trial originally comprised approximately 1867 non-small cell lung cancer patient specimens (adenocarcinomas and squamous cell carcinoma) and was designed to test clinical parameters for patients receiving either cisplatin-based therapy or those considered observation. One problem with testing of biomarkers in general from clinical trials is that the patient population treatments are generally a mixture of several different treatments and combinations of such and so results may be confounded by interactions of various treatments. However, the IALT trial represents pristine treatment arms of cisplatin and observation and thus is relatively free of confounding affects due to treatment variation.
International Adjuvant Lung Cancer Trial (IALT) NSCLC FFPE patient specimens constructed on TMAs (13 total) were stained by IHC for DNA repair biomarkers: ATM, MSH2, ERCC1, p53, pMK2, PARP1, BRCA1, XPF. An average of 603 patients were analyzed for each biomarker. Tumor biomarker nuclear or cytoplasmic levels were determined using digital image user defined macros. Scores were generated based on weighted intensity and quantity of stained cells. In reference to accompanying diagrams in the Powerpoint files, please note that a wide dynamic range achieved during assay development and optimization in commercially available TMAs is translationally achieved when patients comprising this study population are stained, annotated for tumor region and scored by user-defined macros.
Previous studies have utilized standard pathologist-based scoring, thus we chose to optimize the IHC-based assessment of biomarker levels using digital pathology and weighted scoring. This endeavor is undertaken so that for a given population a continuum of scores (herein referred to as Q-scores) with a broad dynamic range may be generated by user defined macros. Here, scoring of individual tumor cells comprising each patient specimen is generated and then patients assembled into a population continuum of scores against which finer cut-points may tested and established rather than crude binning methods as employed in previous studies.
Q-score=10*(% of 10+cells)+9*(% of 9+cells)+8*(% of 8+cells)+7*(% of 7+cells) . . . 1*(% of 1+cells)
Cox PH models adjusted for relevant clinical and stratification variables were used in the univariate analyses of Disease-Free Survival (DFS) and Overall Survival (OS). Initial analyses were conducted using biomarker Q scores as continuous variables against clinical endpoint metrics.

[1] = ATM model, ADENOCARCINOMA, With adjustment variables
[2] = ATM model, ADENOCARCINOMA, With selected variables
[3] = ATM model, ADENOCARCINOMA, Without variables
[4] = ATM model, SQUAMOUS CELLS, With adjustment variables
[5] = ATM model, SQUAMOUS CELLS, With selected variables
[6] = ATM model, SQUAMOUS CELLS, Without variables
[7] = BRCA1 model, ADENOCARCINOMA, With adjustment variables
[8] = BRCA1 model, ADENOCARCINOMA, With selected variables
[9] = BRCA1 model, ADENOCARCINOMA, Without variables
[10] = BRCA1 model, SQUAMOUS CELLS, With adjustment variables
[11] = BRCA1 model, SQUAMOUS CELLS, With selected variables
[12] = BRCA1 model, SQUAMOUS CELLS, Without variables
[13] = Cox PH model with PMK2MC, with adjustment variables, histology heading not shown
[14] = Disease Free Survival, MEAN Q SCORE OF PMK2 CYTOPLASM DIVIDED BY NUCLEAR, Adenocarcinoma, With selected variables
[15] = Disease Free Survival, MEAN Q SCORE OF PMK2 CYTOPLASM DIVIDED BY NUCLEAR, Adenocarcinoma, Without variables
[16] = Disease Free Survival, MEAN Q SCORE PMK2 CYTOPLASM, Adenocarcinoma, With adjustment variables
[17] = Disease Free Survival, MEAN Q SCORE PMK2 CYTOPLASM, Adenocarcinoma, With selected variables
[18] = Disease Free Survival, MEAN Q SCORE PMK2 CYTOPLASM, Adenocarcinoma, Without variables
[19] = Disease Free Survival, MEAN Q SCORE PMK2 CYTOPLASM, Squamous Cells, With adjustment variables
[20] = Disease Free Survival, MEAN Q SCORE PMK2 CYTOPLASM, Squamous Cells, With selected variables
[21] = Disease Free Survival, MEAN Q SCORE PMK2 CYTOPLASM, Squamous Cells, Without variables
[22] = Disease Free Survival, MEAN Q SCORE PMK2 NUCLEAR, Adenocarcinoma, With adjustment variables
[23] = Disease Free Survival, MEAN Q SCORE PMK2 NUCLEAR, Adenocarcinoma, With selected variables
[24] = Disease Free Survival, MEAN Q SCORE PMK2 NUCLEAR, Adenocarcinoma, Without variables
[25] = Disease Free Survival, MEAN Q SCORE PMK2 NUCLEAR, Squamous Cells, With adjustment variables
[26] = Disease Free Survival, MEAN Q SCORE PMK2 NUCLEAR, Squamous Cells, With selected variables
[27] = Disease Free Survival, MEAN Q SCORE PMK2 NUCLEAR, Squamous Cells, Without variables
[28] = Disease Free Survival, MEAN Q SCORE SUM OF PMK2 CYTOPLASM & NUCLEAR, Adenocarcinoma, With adjustment variables
[29] = Disease Free Survival, MEAN Q SCORE SUM OF PMK2 CYTOPLASM & NUCLEAR, Adenocarcinoma, With selected variables
[30] = Disease Free Survival, MEAN Q SCORE SUM OF PMK2 CYTOPLASM & NUCLEAR, Adenocarcinoma, Without variables
[31] = Disease Free Survival, MEAN Q SCORE SUM OF PMK2 CYTOPLASM & NUCLEAR, Squamous Cells, With adjustment variables
[32] = Disease Free Survival, MEAN Q SCORE SUM OF PMK2 CYTOPLASM & NUCLEAR, Squamous Cells, With selected variables
[33] = Disease Free Survival, MEAN Q SCORE SUM OF PMK2 CYTOPLASM & NUCLEAR, Squamous Cells, Without variables
[34] = ERCC1 model, ADENOCARCINOMA, With adjustment variables

## N.N.[Cl][Pt][Cl] [cisplatin]
[1]
  HazardRatio, ATM_Treatment: 0.941
  HazardRatio, Treatment: 1.033
[2]
  HazardRatio, ATM_Treatment: 0.993
  HazardRatio, Treatment: 1.004
[3]
  HazardRatio, ATM_Treatment: 0.972
  HazardRatio, Treatment: 1.142
[4]
  HazardRatio, ATM_Treatment: 1.172
  HazardRatio, Treatment: 0.625
[5]
  HazardRatio, ATM_Treatment: 1.172
  HazardRatio, Treatment: 0.640
[6]
  HazardRatio, ATM_Treatment: 1.148
  HazardRatio, Treatment: 0.659
[7]
  HazardRatio, BRCA1_Treatment: 1.022
  HazardRatio, Treatment: 0.895
[8]
  HazardRatio, BRCA1_Treatment: 1.027
  HazardRatio, Treatment: 0.954
[9]
  HazardRatio, BRCA1_Treatment: 0.844
  HazardRatio, Treatment: 1.391
[10]
  HazardRatio, BRCA1_Treatment: 1.043
  HazardRatio, Treatment: 0.819
[11]
  HazardRatio, BRCA1_Treatment: 1.048
  HazardRatio, Treatment: 0.831
[12]
  HazardRatio, BRCA1_Treatment: 1.028
  HazardRatio, Treatment: 0.852
[13]
  HazardRatio, PMK2MC_Treatment interaction (Disease Free Survival): 1.244
  HazardRatio, Treatment (Disease Free Survival): 0.787
Disease Free Survival, MEAN Q SCORE OF PMK2 CYTOPLASM DIVIDED BY NUCLEAR, Adenocarcinoma, With adjustment variables
  HazardRatio, Treatment: 0.790
[14]
  HazardRatio, PMK2MCNp_Treatment: 31E22
  HazardRatio, Treatment: 0.827
[15]
  HazardRatio, PMK2MCNp_Treatment: 263.6
  HazardRatio, Treatment: 0.997
Disease Free Survival, MEAN Q SCORE OF PMK2 CYTOPLASM DIVIDED BY NUCLEAR, Squamous Cells, With adjustment variables
  HazardRatio, Treatment: 0.643
Disease Free Survival, MEAN Q SCORE OF PMK2 CYTOPLASM DIVIDED BY NUCLEAR, Squamous Cells, With selected variables
  HazardRatio, Treatment: 0.681
Disease Free Survival, MEAN Q SCORE OF PMK2 CYTOPLASM DIVIDED BY NUCLEAR, Squamous Cells, Without variables
  HazardRatio, Treatment: 0.755
[16]
  HazardRatio, PMK2MC_Treatment: 1.163
  HazardRatio, Treatment: 0.862
[17]
  HazardRatio, PMK2MC_Treatment: 1.096
  HazardRatio, Treatment: 0.874
[18]
  HazardRatio, PMK2MC_Treatment: 0.647
  HazardRatio, Treatment: 1.173
[19]
  HazardRatio, PMK2MC_Treatment: 1.206
  HazardRatio, Treatment: 0.804
[20]
  HazardRatio, PMK2MC_Treatment: 1.203
  HazardRatio, Treatment: 0.827
[21]
  HazardRatio, PMK2MC_Treatment: 1.134
  HazardRatio, Treatment: 0.846
[22]
  HazardRatio, PMK2MN_Treatment: 1.094
  HazardRatio, Treatment: 0.815
[23]
  HazardRatio, PMK2MN_Treatment: 1.087
  HazardRatio, Treatment: 0.816
[24]
  HazardRatio, PMK2MN_Treatment: 0.911
  HazardRatio, Treatment: 1.145
[25]
  HazardRatio, PMK2MN_Treatment: 1.126
  HazardRatio, Treatment: 0.758
[26]
  HazardRatio, PMK2MN_Treatment: 1.129
  HazardRatio, Treatment: 0.775
[27]
  HazardRatio, PMK2MN_Treatment: 1.107
  HazardRatio, Treatment: 0.789
[28]
  HazardRatio, PMK2MCNs_Treatment: 1.064
  HazardRatio, Treatment: 0.824
[29]
  HazardRatio, PMK2MCNs_Treatment: 1.056
  HazardRatio, Treatment: 0.829
[30]
  HazardRatio, PMK2MCNs_Treatment: 0.915
  HazardRatio, Treatment: 1.174
[31]
  HazardRatio, PMK2MCNs_Treatment: 1.078
  HazardRatio, Treatment: 0.772
[32]
  HazardRatio, PMK2MCNs_Treatment: 1.079
  HazardRatio, Treatment: 0.791
[33]
  HazardRatio, PMK2MCNs_Treatment: 1.062
  HazardRatio, Treatment: 0.808
[34]
  HazardRatio, ERCC1_Treatment: 1.170
  HazardRatio, Treatment: 0.689
ERCC1 model, ADENOCARCINOMA, With selected variables
  HazardRatio, ERCC1_Treatment: 1.151
